Paper doi:10.1101/2024.11.09.622805v1 (bioRxiv, 2024)

Key:
HT-22 cells = type: cell-based, mouse
[1] = system: SNAP-25, Syntaxin-1A, AT1A3; experiment: Immunocytochemistry of porosome proteins in Alzheimer's neurons; type: cell-based, mouse; settings: Alzheimer's neurons WT-APP (Aβ)
[2] = stated in discussion, no reference given; cited from earlier work

## O=c1cc(-c2ccc(O)cc2)oc2cc(O)cc(O)c12 [Apigenin]
HT-22 cells; AD neurons, peptide and Apigenin combined
  mitoSOX, peptide plus Apigenin: near normal levels
HT-22 cells; HT-22, Apigenin 5 or 10 μM with DA1 1 μM, Aβ1–42 10 μM 12 h
  mitoSOX, effect of Apigenin: not much change
[1]
  immunoreactivity of SNAP-25, Syntaxin-1A and AT1A3, single agent: Modest increase
[2]
  passage through the blood-brain barrier: can pass through the blood-brain barrier
